Source: patent US20230405008A1, “TREATMENT OF HEMATOLOGICAL MALIGNANCIES WITH INHIBITORS OF MENIN” (Kura Oncology, Inc., priority 2020, published 2023)

What follows are molecules tested against T1, menin-MLL interaction (Homo sapiens, UniProt O00255) (assay: Fluorescence polarization (FP) competition assay). Conditions: menin / MLL 4-43 peptide.
T1 sequence (O00255 1-610): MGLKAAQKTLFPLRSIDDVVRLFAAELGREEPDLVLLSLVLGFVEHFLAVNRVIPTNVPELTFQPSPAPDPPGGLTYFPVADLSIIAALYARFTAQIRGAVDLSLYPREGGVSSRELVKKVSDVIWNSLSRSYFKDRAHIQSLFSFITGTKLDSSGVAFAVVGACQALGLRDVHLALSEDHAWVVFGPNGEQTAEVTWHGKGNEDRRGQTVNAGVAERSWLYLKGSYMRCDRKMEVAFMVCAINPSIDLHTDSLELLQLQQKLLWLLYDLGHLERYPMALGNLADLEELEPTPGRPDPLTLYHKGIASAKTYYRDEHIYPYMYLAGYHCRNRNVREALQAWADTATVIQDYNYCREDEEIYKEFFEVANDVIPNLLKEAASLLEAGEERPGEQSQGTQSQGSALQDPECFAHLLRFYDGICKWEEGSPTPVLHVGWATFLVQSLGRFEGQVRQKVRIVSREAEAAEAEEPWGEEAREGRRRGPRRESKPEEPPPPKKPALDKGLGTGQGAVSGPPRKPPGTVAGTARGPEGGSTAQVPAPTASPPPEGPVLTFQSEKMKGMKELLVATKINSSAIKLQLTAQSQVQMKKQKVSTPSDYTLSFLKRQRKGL
Format: binding
`C=CC(=O)Nc1ccc(C(Cn2c(C#N)cc3c(C)c(CN4CCC(Nc5ncnc6sc(CC(F)(F)F)cc56)CC4)ccc32)OC)cc1` (stereo not shown) [Compound I-1] showed an IC50 of 250 to 1000 nM.
Work on `Cc1c(CN2CCC(Nc3ncnc4sc(CC(F)(F)F)cc34)CC2)ccc2c1cc(C#N)n2CC(C)C1CCN(S(C)(=O)=O)CC1` (stereo not shown) [Compound I-3] yielded an IC50 of 250 to 1000 nM.
With `Cc1c(CN2CCC(Nc3ncnc4sc(CC(F)(F)F)cc34)CC2)ccc2c1cc(C#N)n2CC(C(C)C)N1CCN(S(C)(=O)=O)CC1` (stereo not shown) [Compound I-24] the IC50 was 250 to 1000 nM.
Molecule `CC[C@H]1CN(C(C)Cn2c(C#N)cc3c(C)c(CN4CCC(Nc5ncnc6sc(CC(F)(F)F)cc56)CC4)ccc32)CCN1S(C)(=O)=O` (stereo partly shown) [Compound I-26] has an IC50 of 250 to 1000 nM.
`Cc1c(CN2CCC(Nc3ncnc4sc(CC(F)(F)F)cc34)CC2)ccc2c1cc(C#N)n2CCN1CC(C)N(S(C)(=O)=O)CC1C` (stereo not shown) [Compound I-44] gave an IC50 of 250 to 1000 nM.
With `Cc1c(CN2CCC(Nc3ncnc4sc(CC(F)(F)F)cc34)CC2)ccc2c1cc(C#N)n2CCN1CCN(S(C)(=O)=O)CC1C` (stereo not shown) [Compound I-45] the IC50 was 250 to 1000 nM.
`Cc1c(CN2CCC(Nc3ncnc4sc(CC(F)(F)F)cc34)CC2)ccc2c1cc(C#N)n2CCN1CCN(C2CCN(S(C)(=O)=O)C2)CC1` (stereo not shown) [Compound I-52] was tested, and the IC50 was 250 to 1000 nM.
Work on `Cc1c(CN2CCC(Nc3ncnc4sc(CC(F)(F)F)cc34)CC2)ccc2c1cc(C#N)n2CCN1CCC2(CCN(S(C)(=O)=O)C2)C1` (stereo not shown) [Compound I-53] yielded an IC50 of 250 to 1000 nM.
`Cc1c(CN2CCC(Nc3ncnc4sc(CC(F)(F)F)cc34)CC2)ccc2c1cc(C#N)n2CCN1CCC2(CC1)CC(S(C)(=O)=O)C2` [Compound I-54] gave an IC50 of 50 to 250 nM.
`Cc1c(CN2CCC(Nc3ncnc4sc(CC(F)(F)F)cc34)CC2)ccc2c1cc(C#N)n2CCN1CC2CN(S(C)(=O)=O)CC2C1` (stereo not shown) [Compound I-55] was tested, and the IC50 was 250 to 1000 nM.
Work on `Cc1c(CN2CCC(Nc3ncnc4sc(CC(F)(F)F)cc34)CC2)ccc2c1cc(C#N)n2CCN1CC2(CCN(S(C)(=O)=O)CC2)C1` [Compound I-56] yielded an IC50 of 250 to 1000 nM.
Molecule `Cc1c(CN2CCC(Nc3ncnc4sc(CC(F)(F)F)cc34)CC2)ccc2c1cc(C#N)n2CCN1CC2(C1)CN(S(C)(=O)=O)C2` [Compound I-57] has an IC50 of 250 to 1000 nM.
In the case of `Cc1c(CN2CCC(Nc3ncnc4sc(CC(F)(F)F)cc34)CC2)ccc2c1cc(C#N)n2CCN1CC2(CCN(S(C)(=O)=O)C2)C1` [Compound I-58], the IC50 is reported as 250 to 1000 nM.
`Cc1c(CN2CCC(Nc3ncnc4sc(CC(F)(F)F)cc34)CC2)ccc2c1cc(C#N)n2CCC1CCN(S(C)(=O)=O)C(C)C1` (stereo not shown) [Compound I-59] was tested, and the IC50 was 250 to 1000 nM.
`CNS(=O)(=O)N1CCN([C@H](C)Cn2c(C#N)cc3c(C)c(CN4CCC(Nc5ncnc6sc(CC(F)(F)F)cc56)CC4)ccc32)CC1` [Compound I-66] gave an IC50 of 250 to 1000 nM.
Molecule `Cc1c(CN2CCC(Nc3ncnc4sc(CC(F)(F)F)cc34)CC2)ccc2c1cc(C#N)n2C[C@@H](C)N1CCN(C=O)CC1` [Compound I-67] has an IC50 of 250 to 1000 nM.
`Cc1c(CN2CCC(Nc3ncnc4sc(CC(F)(F)F)cc34)CC2)ccc2c1cc(C#N)n2CC(C)N1CCN(S(C)(=O)=O)C(C(=O)O)C1` (stereo not shown) [Compound I-82] was tested, and the IC50 was 250 to 1000 nM.
Molecule `Cc1c(CN2CCC(Nc3ncnc4sc(CC(F)(F)F)cc34)CC2)ccc2c1cc(C#N)n2C[C@H](C)N1CCN(C(=O)C(F)(F)F)CC1` [Compound I-118] has an IC50 of 250 to 1000 nM.
Work on `CNS(=O)(=O)N1CCN(C(C)Cn2c(C#N)cc3c(C)c(CN4CCC(Nc5ncnc6sc(CC(F)(F)F)cc56)CC4)ccc32)CC1` (stereo not shown) [Compound I-128] yielded an IC50 of 50 to 250 nM.
In the case of `Cc1c(CN2CCC(Nc3ncnc4sc(CC(F)(F)F)cc34)CC2)ccc2c1cc(C#N)n2C[C@H](C)N1CCC(NP(C)(C)=O)CC1` [Compound I-157], the IC50 is reported as 250 to 1000 nM.
With `Cc1c(CN2CCC(Nc3ncnc4sc(CC(F)(F)F)cc34)CC2)ccc2c1cc(C#N)n2CC(C)N1CCC(NS(C)(=O)=O)C1` (stereo not shown) [Compound I-162] the IC50 was 50 to 250 nM.
With `Cc1c(CN2CCC(Nc3nc(C4CC4)nc4sc(CC(F)(F)F)cc34)CC2)ccc2c1cc(C#N)n2C[C@H](C)N1CCN(S(C)(=O)=O)CC1` [Compound I-173] the IC50 was 250 to 1000 nM.
For `CNc1nc(NC2CCN(Cc3ccc4c(cc(C#N)n4C[C@H](C)N4CCN(S(=O)(=O)NC)CC4)c3C)CC2)c2cc(CC(F)(F)F)sc2n1` [Compound I-185], the IC50 was 50 to 250 nM.
`Cc1nc(NC2CCN(Cc3ccc4c(cc(C#N)n4C[C@@H](C)N4CCN(S(C)(=O)=O)CC4)c3C)CC2)c2cc(CC(F)(F)F)sc2n1` [Compound I-201] gave an IC50 of 250 to 1000 nM.
With `CNc1nc(NC2CCN(Cc3ccc4c(cc(C#N)n4CCN4CCN(S(C)(=O)=O)[C@H](C#N)C4)c3C)CC2)c2cc(CC(F)(F)F)sc2n1` [Compound I-209] the IC50 was < 50 nM.
With `COc1nc(NC2CCN(Cc3ccc4c(cc(C#N)n4C[C@H](C)N4CCC(S(C)(=O)=O)CC4)c3C)CC2)c2cc(CC(F)(F)F)sc2n1` [Compound I-218] the IC50 was < 50 nM.
`CCS(=O)(=O)NC12CC(Cn3c(C#N)cc4c(C)c(CN5CCC(Nc6ncnc7sc(CC(F)(F)F)cc67)CC5)ccc43)(C1)C2` [II-4] was tested, and the IC50 was 250 to 1000 nM.
For `Cc1c(CN2CCC(Nc3ncnc4sc(CC(F)(F)F)cc34)CC2)ccc2c1cc(C#N)n2CC12CC(NC(=O)C3CCCC(=O)N3)(C1)C2` (stereo not shown) [II-35], the IC50 was < 50 nM.
Molecule `Cc1c(CN2CCC3(CCN(c4ncnc5sc(CC(F)(F)F)cc45)C3)C2)ccc2[nH]c(C#N)cc12` (stereo not shown) [III-30a] has an IC50 of 50 to 250 nM.
`CS(=O)(=O)Nc1ccc(CN2CCC3(CCN(c4ncnc5sc(CC(F)(F)F)cc45)C3)C2)cc1` (stereo not shown) [III-38] gave an IC50 of 50 to 250 nM.
Molecule `CS(=O)(=O)N[C@H]1CC[C@H](CN2CCC3(CCN(c4ncnc5sc(CC(F)(F)F)cc45)C3)C2)CC1` (stereo partly shown) [III-48] has an IC50 of 250 to 1000 nM.
